One assay concerns the target D(3) dopamine receptor (Homo sapiens, UniProt P35462).
In assay [1] the target is T1, Muscarinic acetylcholine receptor M1 (Homo sapiens, UniProt P11229).
T1 sequence (P11229 whole entry): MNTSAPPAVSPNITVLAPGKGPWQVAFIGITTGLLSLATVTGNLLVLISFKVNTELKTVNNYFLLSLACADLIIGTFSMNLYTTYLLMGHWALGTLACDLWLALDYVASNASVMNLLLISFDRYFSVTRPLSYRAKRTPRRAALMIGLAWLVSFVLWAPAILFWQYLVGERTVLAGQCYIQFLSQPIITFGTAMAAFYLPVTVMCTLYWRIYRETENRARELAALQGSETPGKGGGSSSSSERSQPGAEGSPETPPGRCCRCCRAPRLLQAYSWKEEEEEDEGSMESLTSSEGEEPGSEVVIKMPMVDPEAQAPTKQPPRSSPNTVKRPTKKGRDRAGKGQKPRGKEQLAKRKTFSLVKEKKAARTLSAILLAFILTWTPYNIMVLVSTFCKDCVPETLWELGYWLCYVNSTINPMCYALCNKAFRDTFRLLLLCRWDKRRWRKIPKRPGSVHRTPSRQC
In kind it is functional.

In assay [2] the target is cGMP-inhibited 3',5'-cyclic phosphodiesterase 3A (Homo sapiens, UniProt Q14432). In kind it is functional.
Sequence of cGMP-inhibited 3',5'-cyclic phosphodiesterase 3A (Q14432 whole entry): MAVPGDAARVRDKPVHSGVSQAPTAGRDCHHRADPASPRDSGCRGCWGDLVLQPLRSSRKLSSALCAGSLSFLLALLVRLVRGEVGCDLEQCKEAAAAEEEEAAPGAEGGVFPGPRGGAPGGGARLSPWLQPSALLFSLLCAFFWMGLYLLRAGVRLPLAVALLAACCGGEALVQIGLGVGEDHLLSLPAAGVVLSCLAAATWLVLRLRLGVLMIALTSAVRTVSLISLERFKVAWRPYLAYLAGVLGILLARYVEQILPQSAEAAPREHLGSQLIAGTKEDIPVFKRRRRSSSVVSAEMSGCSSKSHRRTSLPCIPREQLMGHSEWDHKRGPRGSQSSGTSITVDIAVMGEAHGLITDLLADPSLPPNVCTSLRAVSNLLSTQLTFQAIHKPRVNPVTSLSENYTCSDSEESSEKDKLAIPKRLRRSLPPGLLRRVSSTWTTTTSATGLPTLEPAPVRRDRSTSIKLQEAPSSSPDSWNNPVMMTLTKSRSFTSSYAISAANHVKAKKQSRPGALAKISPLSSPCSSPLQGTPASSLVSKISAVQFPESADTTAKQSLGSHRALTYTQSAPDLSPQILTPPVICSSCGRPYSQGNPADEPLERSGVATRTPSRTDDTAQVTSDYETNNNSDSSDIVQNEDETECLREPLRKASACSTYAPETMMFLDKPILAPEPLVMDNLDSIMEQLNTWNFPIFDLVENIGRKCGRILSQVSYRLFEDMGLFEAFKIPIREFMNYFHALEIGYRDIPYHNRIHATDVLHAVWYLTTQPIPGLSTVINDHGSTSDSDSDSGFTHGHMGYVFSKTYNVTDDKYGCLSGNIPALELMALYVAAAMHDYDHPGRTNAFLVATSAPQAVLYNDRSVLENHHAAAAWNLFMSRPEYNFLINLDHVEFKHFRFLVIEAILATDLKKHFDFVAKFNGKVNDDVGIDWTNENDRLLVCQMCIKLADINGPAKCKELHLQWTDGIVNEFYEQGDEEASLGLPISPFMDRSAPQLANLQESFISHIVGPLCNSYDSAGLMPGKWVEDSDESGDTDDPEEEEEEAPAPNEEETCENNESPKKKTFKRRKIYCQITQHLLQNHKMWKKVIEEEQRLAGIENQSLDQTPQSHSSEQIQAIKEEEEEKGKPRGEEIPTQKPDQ
For assay [3], the target named is T2, Alpha-1A adrenergic receptor (Homo sapiens, UniProt P35348).
T2 sequence (P35348 whole entry): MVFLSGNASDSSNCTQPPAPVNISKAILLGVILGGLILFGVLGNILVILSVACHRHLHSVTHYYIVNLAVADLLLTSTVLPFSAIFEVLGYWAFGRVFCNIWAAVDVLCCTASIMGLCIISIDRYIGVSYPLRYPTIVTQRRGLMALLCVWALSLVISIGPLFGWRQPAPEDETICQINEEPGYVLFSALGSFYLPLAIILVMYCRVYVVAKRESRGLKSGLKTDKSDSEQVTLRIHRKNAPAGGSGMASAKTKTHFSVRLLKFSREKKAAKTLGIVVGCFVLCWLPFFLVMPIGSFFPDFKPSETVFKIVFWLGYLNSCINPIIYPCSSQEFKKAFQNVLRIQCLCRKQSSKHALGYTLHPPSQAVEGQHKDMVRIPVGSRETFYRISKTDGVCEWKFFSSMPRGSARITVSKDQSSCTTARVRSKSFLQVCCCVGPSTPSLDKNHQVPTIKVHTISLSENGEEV
The assay is classed as functional, cell-based.

For assay [4], the target named is Sodium-dependent dopamine transporter (Homo sapiens, UniProt Q01959).
Sequence of Sodium-dependent dopamine transporter (Q01959 whole entry): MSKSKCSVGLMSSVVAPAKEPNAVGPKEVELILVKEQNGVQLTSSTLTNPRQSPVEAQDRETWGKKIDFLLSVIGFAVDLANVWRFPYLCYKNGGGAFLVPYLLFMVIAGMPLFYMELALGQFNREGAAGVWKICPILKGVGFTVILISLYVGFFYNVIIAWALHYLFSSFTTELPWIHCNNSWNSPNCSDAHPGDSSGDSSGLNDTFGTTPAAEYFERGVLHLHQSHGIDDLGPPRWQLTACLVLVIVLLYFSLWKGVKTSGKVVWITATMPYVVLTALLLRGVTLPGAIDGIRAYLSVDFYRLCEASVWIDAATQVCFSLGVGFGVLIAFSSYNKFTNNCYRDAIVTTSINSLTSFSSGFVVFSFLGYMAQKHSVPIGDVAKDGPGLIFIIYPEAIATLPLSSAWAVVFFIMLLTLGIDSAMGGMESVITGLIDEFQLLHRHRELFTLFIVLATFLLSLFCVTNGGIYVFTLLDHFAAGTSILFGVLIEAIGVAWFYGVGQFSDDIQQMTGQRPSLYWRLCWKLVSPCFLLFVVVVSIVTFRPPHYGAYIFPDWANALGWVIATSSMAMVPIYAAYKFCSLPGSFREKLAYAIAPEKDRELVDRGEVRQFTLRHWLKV
For assay [5], the target named is Kappa-type opioid receptor (Homo sapiens, UniProt P41145).
Sequence of Kappa-type opioid receptor (P41145 whole entry): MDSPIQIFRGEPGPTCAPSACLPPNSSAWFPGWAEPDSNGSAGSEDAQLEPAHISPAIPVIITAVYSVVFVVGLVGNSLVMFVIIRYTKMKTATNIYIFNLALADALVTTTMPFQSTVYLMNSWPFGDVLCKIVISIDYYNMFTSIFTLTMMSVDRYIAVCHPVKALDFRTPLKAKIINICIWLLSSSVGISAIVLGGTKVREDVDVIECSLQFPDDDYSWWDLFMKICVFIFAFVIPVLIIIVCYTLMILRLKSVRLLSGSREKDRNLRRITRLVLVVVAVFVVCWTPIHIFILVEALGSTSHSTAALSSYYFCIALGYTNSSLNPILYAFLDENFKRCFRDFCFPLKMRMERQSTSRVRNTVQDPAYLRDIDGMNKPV
Assay [6] concerns the target Beta-1 adrenergic receptor (Homo sapiens, UniProt P08588). The assay is classed as functional.
The target in the next assay is T3, Adenosine receptor A3 (Homo sapiens, UniProt P0DMS8).
T3 sequence (P0DMS8 whole entry): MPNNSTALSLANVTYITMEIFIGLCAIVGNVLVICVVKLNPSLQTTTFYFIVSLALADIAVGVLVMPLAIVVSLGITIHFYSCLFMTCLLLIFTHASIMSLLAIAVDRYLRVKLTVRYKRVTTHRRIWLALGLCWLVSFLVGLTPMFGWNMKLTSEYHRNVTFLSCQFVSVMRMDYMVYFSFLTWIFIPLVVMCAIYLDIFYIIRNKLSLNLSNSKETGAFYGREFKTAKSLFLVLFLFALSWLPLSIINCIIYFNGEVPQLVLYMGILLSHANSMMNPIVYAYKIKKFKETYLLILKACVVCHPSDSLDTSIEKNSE

The target in assay [7] is T4, Muscarinic acetylcholine receptor M2 (Homo sapiens, UniProt P08172).
T4 sequence (P08172 whole entry): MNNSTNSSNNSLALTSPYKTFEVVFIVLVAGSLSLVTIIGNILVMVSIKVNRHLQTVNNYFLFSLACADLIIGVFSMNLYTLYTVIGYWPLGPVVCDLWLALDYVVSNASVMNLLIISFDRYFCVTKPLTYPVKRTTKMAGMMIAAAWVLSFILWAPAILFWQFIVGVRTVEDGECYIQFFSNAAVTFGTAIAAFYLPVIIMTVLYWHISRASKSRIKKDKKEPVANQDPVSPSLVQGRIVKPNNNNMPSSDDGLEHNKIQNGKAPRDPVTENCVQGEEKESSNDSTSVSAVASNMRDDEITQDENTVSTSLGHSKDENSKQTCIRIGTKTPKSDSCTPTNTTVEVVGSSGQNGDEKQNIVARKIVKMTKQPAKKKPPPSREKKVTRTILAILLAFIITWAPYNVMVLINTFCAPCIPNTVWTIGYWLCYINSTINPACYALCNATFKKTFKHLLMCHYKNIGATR
In kind it is functional, cell-based.

Another assay deals with Histamine H3 receptor (Homo sapiens, UniProt Q9Y5N1).
Sequence of Histamine H3 receptor (Q9Y5N1 whole entry): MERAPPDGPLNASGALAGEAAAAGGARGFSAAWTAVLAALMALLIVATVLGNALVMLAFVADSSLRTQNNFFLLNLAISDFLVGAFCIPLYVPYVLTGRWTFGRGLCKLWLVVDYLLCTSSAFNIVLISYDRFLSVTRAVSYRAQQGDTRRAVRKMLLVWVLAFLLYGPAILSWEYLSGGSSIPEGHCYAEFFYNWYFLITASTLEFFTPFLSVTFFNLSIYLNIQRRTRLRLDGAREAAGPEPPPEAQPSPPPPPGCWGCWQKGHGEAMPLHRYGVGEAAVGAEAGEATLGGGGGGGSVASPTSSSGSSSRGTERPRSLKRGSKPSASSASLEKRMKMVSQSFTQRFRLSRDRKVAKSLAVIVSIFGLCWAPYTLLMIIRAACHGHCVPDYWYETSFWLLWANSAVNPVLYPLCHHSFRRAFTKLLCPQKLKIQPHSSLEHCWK
For assay [8], the target named is T5, Amine oxidase [flavin-containing] A (Homo sapiens, UniProt P21397).
T5 sequence (P21397 whole entry): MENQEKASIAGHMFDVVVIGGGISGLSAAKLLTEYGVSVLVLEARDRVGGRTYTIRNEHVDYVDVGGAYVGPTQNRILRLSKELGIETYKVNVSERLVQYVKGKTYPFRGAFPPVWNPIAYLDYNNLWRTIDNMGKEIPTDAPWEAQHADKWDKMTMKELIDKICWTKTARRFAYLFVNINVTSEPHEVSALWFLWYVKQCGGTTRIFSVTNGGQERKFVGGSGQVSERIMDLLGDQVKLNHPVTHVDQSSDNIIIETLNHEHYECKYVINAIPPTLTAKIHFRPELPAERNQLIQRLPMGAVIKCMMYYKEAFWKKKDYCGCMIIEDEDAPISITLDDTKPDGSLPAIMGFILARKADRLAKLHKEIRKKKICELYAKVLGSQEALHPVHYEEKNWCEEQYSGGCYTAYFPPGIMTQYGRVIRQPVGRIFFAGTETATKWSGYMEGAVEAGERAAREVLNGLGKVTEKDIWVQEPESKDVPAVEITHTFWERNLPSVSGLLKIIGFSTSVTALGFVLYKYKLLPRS
The assay is classed as functional.

SMILES strings stand for the structures. Bounds are passed on as bounds.

The term AC50 denotes the concentration at which the activity in the assay is half-maximal.
Also: assay procedure not described here.

Sequence of D(3) dopamine receptor (P35462 whole entry): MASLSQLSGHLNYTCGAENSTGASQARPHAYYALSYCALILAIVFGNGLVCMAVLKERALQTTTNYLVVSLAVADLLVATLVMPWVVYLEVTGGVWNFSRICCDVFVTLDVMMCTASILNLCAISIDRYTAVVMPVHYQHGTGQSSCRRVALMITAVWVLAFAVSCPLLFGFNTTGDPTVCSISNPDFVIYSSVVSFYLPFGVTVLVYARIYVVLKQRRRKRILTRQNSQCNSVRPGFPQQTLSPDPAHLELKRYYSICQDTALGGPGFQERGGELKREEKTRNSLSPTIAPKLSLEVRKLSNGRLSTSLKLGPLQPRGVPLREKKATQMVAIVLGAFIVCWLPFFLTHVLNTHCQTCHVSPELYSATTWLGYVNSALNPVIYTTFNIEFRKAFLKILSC
Sequence of Beta-1 adrenergic receptor (P08588 whole entry): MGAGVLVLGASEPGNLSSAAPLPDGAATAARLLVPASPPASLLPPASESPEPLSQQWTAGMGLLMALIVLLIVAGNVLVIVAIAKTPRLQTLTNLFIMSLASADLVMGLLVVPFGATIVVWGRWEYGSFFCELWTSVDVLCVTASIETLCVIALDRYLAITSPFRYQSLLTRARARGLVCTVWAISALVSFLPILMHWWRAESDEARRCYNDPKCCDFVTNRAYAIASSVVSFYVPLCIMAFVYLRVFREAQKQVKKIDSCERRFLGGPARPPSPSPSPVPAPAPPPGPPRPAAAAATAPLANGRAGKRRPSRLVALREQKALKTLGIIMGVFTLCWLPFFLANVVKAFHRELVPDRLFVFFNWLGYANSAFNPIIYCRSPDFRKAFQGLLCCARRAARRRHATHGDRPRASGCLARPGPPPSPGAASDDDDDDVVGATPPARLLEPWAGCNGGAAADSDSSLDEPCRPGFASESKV

For the compound `C[C@]12CCC(=O)C=C1C=C[C@@H]1[C@@H]2CC[C@@]2(C)[C@H]1CC[C@@]21CCC(=O)O1` [CANRENONE], the AC50 at D(3) dopamine receptor was more than 30 µM; in assay [1] it was more than 30 µM; in assay [2], more than 30 µM; in assay [3], more than 30 µM; in [4], more than 30 µM; in assay [5] it was 19 µM. Moreover, the AC50 is more than 30 µM in [6]; more than 30 µM on Adenosine receptor A3; 20 µM in assay [7]; more than 30 µM at Histamine H3 receptor; more than 30 µM in [8].

With `C[C@]12C=CC(=O)C=C1C(Cl)=C[C@@H]1[C@@H]2[C@@H](O)C[C@@]2(C)[C@H]1CC[C@]2(O)C(=O)CO` [CLOPREDNOL], the AC50 (at D(3) dopamine receptor; in assay [1]; in [2]; in assay [3]; in [4]; in assay [5]) was more than 30 µM throughout. Also, the AC50 was more than 30 µM in [6]; 13 µM at Adenosine receptor A3; more than 30 µM in assay [7]; more than 30 µM at Histamine H3 receptor; more than 30 µM in assay [8].

As to `C[C@]12CCC(=O)C=C1[C@@H]1C[C@@H]1[C@H]1[C@@H]3[C@@H]4C[C@@H]4[C@@]4(CCC(=O)O4)[C@@]3(C)CC[C@@H]12` [DROSPIRENONE], the AC50 (on D(3) dopamine receptor; in [1]; in [2]; in assay [3]; in [4]; in assay [5]) was more than 30 µM each time. For the same compound, the AC50 in assay [6] was more than 30 µM; on Adenosine receptor A3, more than 30 µM; in [7], more than 10 µM; at Histamine H3 receptor it was more than 30 µM; in [8], more than 30 µM.

`CN(C)[C@@H]1C(O)=C(C(=O)NCN2CCCC2)C(=O)[C@@]2(O)C(O)=C3C(=O)c4c(O)cccc4[C@@](C)(O)[C@H]3C[C@@H]12` [ROLITETRACYCLINE]: the AC50 is more than 30 µM on D(3) dopamine receptor; more than 10 µM in assay [1]; more than 30 µM in assay [2]; more than 30 µM in [3]; more than 10 µM in assay [4]; more than 10 µM in assay [5]. Besides, the AC50 (in assay [6]; on Adenosine receptor A3; in [7]; at Histamine H3 receptor; in [8]) was more than 10 µM throughout.

Regarding `Oc1cc(Cl)ccc1Oc1ccc(Cl)cc1Cl` [TRICLOSAN], the AC50 on D(3) dopamine receptor is more than 30 µM; in assay [1], more than 30 µM; in [2], more than 30 µM; in assay [3], more than 30 µM; in [4], 24 µM; in assay [5], more than 30 µM. Besides, the AC50 in assay [6] was more than 30 µM; on Adenosine receptor A3 it was 8.9 µM; in [7], more than 30 µM; on Histamine H3 receptor, more than 30 µM; in assay [8], more than 30 µM.

These data come from ChEMBL document CHEMBL5291721, “A preclinical secondary pharmacology resource illuminates target-adverse drug reaction associations of marketed drugs” (Nat Commun, 2023).
